Data taken from US9181232B2, “Difluoro-hexahydro-cyclopentaoxazinyls and difluoro-hexahydro-benzooxazinyls as BACE1 inhibitors” (Hoffmann-La Roche Inc., priority 2012, dated 2015).

Experiments:
P-gp (human MDR1) = molecular target: T1, P-gp (human MDR1) (Homo sapiens, UniProt P08183); test: P-gp (P-Glycoprotein) assay, bidirectional transcellular transport in LLC-PK1 and L-MDR1 cells; assay type: in vitro ADME; conditions: read-out: P-gp human, efflux ratio: substrate category
T1 construct: host or cells: LLC-PK1 (porcine kidney epithelial) transfected with human MDR1 (L-MDR1)
Description: The LLC-PK1 cell line (ATCC #CL-101) is a porcine kidney epithelial cell line. The MDR1 (Human multidrug resistance protein 1) transfected cell lines were obtained from Dr. A. Schinkel, The Netherlands Cancer Institute (Amsterdam, The Netherlands). All cell lines were cultured on permeable inserts (96-insert plates Millipore, 0.11 cm^2 area, pore size 0.4 μm) at 0.73*10^6 cells/ml. Transport measurements were performed at day 4 after seeding. Tightness of the cell monolayer was controlled via the permeability of the extracellular marker lucifer yellow (10 μM).
Bidirectional transcellular transport using LLC-PK1 and L-MDR1 LLC-PK1 cells exogenously expressing the human MDR1)
The experiments were performed on a TECAN automated liquid handling system. […] Concentrations of substrate in both compartments were determined by scintillation counting (digoxin) or by LC-MS/MS. The extracellular marker (lucifer yellow) was quantified using a spectrafluor plus reader at 430/535 nm (Ex/Em). In each experiment 3 different inserts were used for each condition and a mean was calculated. […]
Where Papp, A, C0, and dQ/dt represent the apparent permeability, the filter surface area, the initial concentration, and the amount transported per time period, respectively. Papp values were calculated on the basis of a single time point (2 h).
Transport efflux ratios (ER) were calculated as follows: […]

[1] = Detection of glutathione conjugates; assay type: in vitro ADME, human; design: key: NF = in vitro no significant adduct formation relative to control; conditions: in vitro, relative to control
Description: The assay conditions for the detection of glutathione conjugates follow the procedure described by C. M. Dieckhaus et al.^13

T1 sequence (P08183 whole entry): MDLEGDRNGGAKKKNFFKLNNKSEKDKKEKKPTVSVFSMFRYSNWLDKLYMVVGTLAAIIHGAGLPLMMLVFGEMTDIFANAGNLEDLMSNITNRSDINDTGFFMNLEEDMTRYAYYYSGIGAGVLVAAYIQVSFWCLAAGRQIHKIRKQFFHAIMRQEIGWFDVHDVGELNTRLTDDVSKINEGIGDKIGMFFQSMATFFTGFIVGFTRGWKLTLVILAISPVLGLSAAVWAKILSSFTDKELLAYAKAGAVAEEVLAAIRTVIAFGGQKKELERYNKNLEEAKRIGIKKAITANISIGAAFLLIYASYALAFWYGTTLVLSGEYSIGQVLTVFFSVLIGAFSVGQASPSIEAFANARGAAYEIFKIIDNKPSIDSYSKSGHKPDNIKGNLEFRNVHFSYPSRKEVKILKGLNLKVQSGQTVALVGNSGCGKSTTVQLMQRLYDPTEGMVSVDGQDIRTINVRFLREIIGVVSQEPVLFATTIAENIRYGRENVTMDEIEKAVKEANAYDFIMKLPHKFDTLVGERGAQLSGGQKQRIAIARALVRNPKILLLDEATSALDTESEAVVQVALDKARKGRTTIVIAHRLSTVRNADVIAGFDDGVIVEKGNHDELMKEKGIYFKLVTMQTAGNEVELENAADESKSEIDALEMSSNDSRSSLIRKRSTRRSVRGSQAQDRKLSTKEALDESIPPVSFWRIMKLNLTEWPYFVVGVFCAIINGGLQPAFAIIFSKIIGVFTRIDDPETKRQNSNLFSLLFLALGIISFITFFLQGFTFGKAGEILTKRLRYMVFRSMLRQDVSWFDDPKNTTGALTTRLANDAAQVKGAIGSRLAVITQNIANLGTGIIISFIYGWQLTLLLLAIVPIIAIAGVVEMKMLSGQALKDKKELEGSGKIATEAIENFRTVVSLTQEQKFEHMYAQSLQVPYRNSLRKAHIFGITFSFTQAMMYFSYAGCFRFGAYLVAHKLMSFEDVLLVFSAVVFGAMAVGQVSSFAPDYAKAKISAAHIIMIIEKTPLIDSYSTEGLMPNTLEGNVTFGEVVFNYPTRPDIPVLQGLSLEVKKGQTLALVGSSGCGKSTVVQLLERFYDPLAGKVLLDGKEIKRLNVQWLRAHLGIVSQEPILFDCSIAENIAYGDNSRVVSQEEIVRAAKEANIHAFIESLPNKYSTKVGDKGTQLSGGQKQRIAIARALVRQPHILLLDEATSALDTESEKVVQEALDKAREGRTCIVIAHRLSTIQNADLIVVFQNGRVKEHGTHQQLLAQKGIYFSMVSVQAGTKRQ

Compound | efflux ratio at 2 h (P-gp (human MDR1)) | GSH human (glutathione adduct formation) [1]
C[C@]1(c2cc(NC(=O)c3ccc(C#N)cn3)ccc2F)N=C(N)O[C@@H]2CCC(F)(F)[C@@H]21 [Example 2, 5-Cyano-pyridine-2-carboxylic acid [3-((4S,4aR,7aR)-2-amino-5,5-difluoro-4-methyl-4,4a,5,6,7,7a-hexahydro-cyclopenta[e][1,3]oxazin-4-yl)-4-fluoro-phenyl]-amide] | 3 to 10 | NF
C[C@]1(c2cc(NC(=O)c3ccc(C#N)cn3)ccc2F)N=C(N)O[C@@H]2CCCC(F)(F)[C@@H]21 [Example 8, 5-Cyano-pyridine-2-carboxylic acid [3-((4S,4aR,8aR)-2-amino-5,5-difluoro-4-methyl-4a,5,6,7,8,8a-hexahydro-4H-benzo[e][1,3]oxazin-4-yl)-4-fluoro-phenyl]-amide] |  | NF
CC#CCOc1cnc(C(=O)Nc2ccc(F)c([C@@]3(C)N=C(N)O[C@@H]4CCC(F)(F)[C@@H]43)c2)cn1 [Example 1, 5-But-2-ynyloxy-pyrazine-2-carboxylic acid [3-((4S,4aR,7aR)-2-amino-5,5-difluoro-4-methyl-4,4a,5,6,7,7a-hexahydro-cyclopenta[e][1,3]oxazin-4-yl)-4-fluoro-phenyl]-amide] | 3 to 10 | 
